Reference: patent US10265321B2, “Uses of salt-inducible kinase (SIK) inhibitors” (Dana-Farber Cancer Institute, Inc., priority 2014, dated 2019)

How the values were obtained:
SIK2 = biological target: T1, SIK2 (Homo sapiens, UniProt Q9H0K1); assay: Protein kinase assay ([γ-32P] ATP, phosphocellulose paper) against SIK2; type: biochemical; details: for remaining activity at 0.1 µM / remaining activity at 1 µM: DMSO set to 100%; for remaining activity at 0.1 µM: read-out: Activity of protein kinase treated with 0.1 μM of I-1 (% control (DMSO)) SIK2; for remaining activity at 1 µM: read-out: Activity of protein kinase treated with 1 μM of I-1 (% control (DMSO)) SIK2; for IC50: read-out: Enzyme Inhibition IC50 SIK2
T1 construct: made in house
T1 sequence (Q9H0K1 whole entry): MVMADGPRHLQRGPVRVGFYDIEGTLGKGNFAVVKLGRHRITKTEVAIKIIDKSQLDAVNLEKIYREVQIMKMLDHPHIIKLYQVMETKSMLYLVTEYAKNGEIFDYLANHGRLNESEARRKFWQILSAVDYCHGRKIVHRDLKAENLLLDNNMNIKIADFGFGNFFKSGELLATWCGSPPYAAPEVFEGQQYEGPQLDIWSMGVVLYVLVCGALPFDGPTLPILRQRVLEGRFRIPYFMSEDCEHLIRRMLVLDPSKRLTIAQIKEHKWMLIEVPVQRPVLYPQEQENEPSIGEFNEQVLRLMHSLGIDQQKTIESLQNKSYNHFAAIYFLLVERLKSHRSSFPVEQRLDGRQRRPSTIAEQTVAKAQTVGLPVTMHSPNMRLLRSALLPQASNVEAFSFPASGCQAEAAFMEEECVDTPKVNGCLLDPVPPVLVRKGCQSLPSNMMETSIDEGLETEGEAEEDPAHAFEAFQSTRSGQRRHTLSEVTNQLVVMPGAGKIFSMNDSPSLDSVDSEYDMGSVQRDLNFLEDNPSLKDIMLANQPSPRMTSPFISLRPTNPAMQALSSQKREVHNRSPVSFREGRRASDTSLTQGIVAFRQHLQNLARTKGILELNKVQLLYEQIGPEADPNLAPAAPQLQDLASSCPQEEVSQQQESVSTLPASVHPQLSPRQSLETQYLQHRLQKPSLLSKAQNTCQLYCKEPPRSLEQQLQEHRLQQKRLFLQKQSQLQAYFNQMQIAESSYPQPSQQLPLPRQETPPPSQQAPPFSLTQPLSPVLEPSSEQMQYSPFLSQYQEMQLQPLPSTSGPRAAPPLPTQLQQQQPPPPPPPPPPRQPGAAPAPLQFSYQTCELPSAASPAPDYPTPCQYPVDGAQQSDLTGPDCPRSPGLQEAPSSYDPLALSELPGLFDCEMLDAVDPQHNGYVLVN
Method: (§1) Bone marrow-derived DCs were differentiated from C57BL/6 bone marrow in the presence of GM-CSF-conditioned media. CD11c^+ CX3CR1^hi myeloid cells and CD11c^+ CX3CR1^− DCs were isolated from the small intestine lamina propria of Cx3cr1^eGFP/+ mice (12). Detection of cell-surface Thy1.1 expression on BMDCs from 10BiT reporter mice was conducted as described previously (24). Cell viability was estimated by change in total cellular ATP levels using CellTiterGlo assays (Promega). Preparation of recombinant SIK proteins and IC50 measurements were conducted as described previously (21). Total RNA was extracted using a NucleoSpin 96 RNA isolation kit (Macherey-Nagel) followed by cDNA synthesis and multiplex RT-PCR using a microfluidic dynamic array (Fluidigm). The concentrations of TNF-α, IL-6, IL-10, IL-12p40, IL-1β and RANTES in culture supernatants were detected using a FlexSet Cytometric bead array (BD Biosciences). Alternatively, IL-10 secretion was quantified using ELISA (BD Biosciences) or AlphaLISA (PerkinElmer) assays. NO production was estimated based on nitrate content in culture medium using the Greiss reagent.
(§2) In another set of experiments, the activities of the SIK inhibitors described herein against SIK were determined according to the methods reported in Hastie et al., Nature Protocols, 2006, 1, 968-971.
(§3) This buffer consisted of 50 mM Tris-HCl, pH 7.5, 0.1 mM EGTA, 1 mg ml^−1 bovine serum albumin and 0.1% (vol/vol) 2-mercaptoethanol.
(§4) An assay buffer of 500 mM Tris-HCl, pH 7.5, 1 mM EGTA, and 100 mM magnesium acetate was used for the protein kinase assay.
(§5) The specific activity of the [γ-^32P] ATP solution was 1×10^5 to 1×10^6 c.p.m. per nmol depending on what was needed to produce an optimal signal/noise ratio. Stocks of nonradioactive (“cold”) ATP were dissolved in 10 mM HEPES, and the pH of the resulting stock solutions was adjusted to 7.4. To measure the concentration of ATP, a sample of such a stock solution was diluted to 20 μM, and the absorbance of the diluted sample was measured at 259 nm. The absorbance of a 20-μM stock solution of ATP at 259 nm was about 0.31. The 1-mM solution of cold ATP was “spiked” with [γ-^32P] ATP to produce a radioactivity of 1×10^5 to 1×10^6 c.p.m. per nmol.
(§6) 1) The number of assay samples needed was determined based on, e.g., the following considerations: (i) each condition was assayed in duplicate; (ii) two controls containing peptide or protein substrate and ATP but no SIK were included to assess contamination by any free ATP not incorporated into substrate, alongside two controls lacking a peptide or protein substrate but containing ATP and SIK to correct for any incorporation of phosphate into the kinase itself (e.g., autophosphorylation); and (iii) a maximum of 40 samples were assayed manually at one time by a single person. Microcentrifuge tubes were label distinctly and were placed on ice.
(§7) 4) Dilute the SIK in enzyme dilution buffer and place on ice.
(§8) 5) Pipette 5 j±l of 10× concentrated assay buffer, 5 j±l peptide or protein substrate (the two “no-substrate” control tubes had 5 j±l water added instead of peptide or protein substrate), and 30 μl distilled water into each tube. Keep the tubes on ice.
(§9) 6) Add 5 μl diluted SIK to each tube, except for the two “no-enzyme” control tubes, which had 5 μl enzyme dilution buffer added, and still keeping the tubes on ice. In some cases, premixed “cocktails” of assay components were prepared containing peptide or protein substrate, assay buffer, and distilled water to limit the number of additions to each assay tube. Each of steps 7 to 14 was done behind a plexiglass shield.
(§10) 7) Insert each tube into the water bath at intervals of 15 s to allow the assay mixture to reach 30° C. Begin the SIK reactions by adding 5 μl of 1 mM [γ-^32P] ATP to each tube at intervals of 15 s. Close each tube, vortex for 1 s to mix the contents and immediately replace in a rack in the water bath. Incubate for 10 min at 30° C. […]

SIK3 = biological target: T2, SIK3 (Homo sapiens, UniProt Q9Y2K2); assay: Protein kinase assay ([γ-32P] ATP, phosphocellulose paper) against SIK3; type: biochemical; details: for remaining activity at 0.1 µM / remaining activity at 1 µM: DMSO set to 100%; for remaining activity at 0.1 µM: read-out: Activity of protein kinase treated with 0.1 μM of I-1 (% control (DMSO)) SIK3; for remaining activity at 1 µM: read-out: Activity of protein kinase treated with 1 μM of I-1 (% control (DMSO)) SIK3; for IC50: read-out: Enzyme Inhibition IC50 SIK3
T2 construct: made in house
T2 sequence (Q9Y2K2 whole entry): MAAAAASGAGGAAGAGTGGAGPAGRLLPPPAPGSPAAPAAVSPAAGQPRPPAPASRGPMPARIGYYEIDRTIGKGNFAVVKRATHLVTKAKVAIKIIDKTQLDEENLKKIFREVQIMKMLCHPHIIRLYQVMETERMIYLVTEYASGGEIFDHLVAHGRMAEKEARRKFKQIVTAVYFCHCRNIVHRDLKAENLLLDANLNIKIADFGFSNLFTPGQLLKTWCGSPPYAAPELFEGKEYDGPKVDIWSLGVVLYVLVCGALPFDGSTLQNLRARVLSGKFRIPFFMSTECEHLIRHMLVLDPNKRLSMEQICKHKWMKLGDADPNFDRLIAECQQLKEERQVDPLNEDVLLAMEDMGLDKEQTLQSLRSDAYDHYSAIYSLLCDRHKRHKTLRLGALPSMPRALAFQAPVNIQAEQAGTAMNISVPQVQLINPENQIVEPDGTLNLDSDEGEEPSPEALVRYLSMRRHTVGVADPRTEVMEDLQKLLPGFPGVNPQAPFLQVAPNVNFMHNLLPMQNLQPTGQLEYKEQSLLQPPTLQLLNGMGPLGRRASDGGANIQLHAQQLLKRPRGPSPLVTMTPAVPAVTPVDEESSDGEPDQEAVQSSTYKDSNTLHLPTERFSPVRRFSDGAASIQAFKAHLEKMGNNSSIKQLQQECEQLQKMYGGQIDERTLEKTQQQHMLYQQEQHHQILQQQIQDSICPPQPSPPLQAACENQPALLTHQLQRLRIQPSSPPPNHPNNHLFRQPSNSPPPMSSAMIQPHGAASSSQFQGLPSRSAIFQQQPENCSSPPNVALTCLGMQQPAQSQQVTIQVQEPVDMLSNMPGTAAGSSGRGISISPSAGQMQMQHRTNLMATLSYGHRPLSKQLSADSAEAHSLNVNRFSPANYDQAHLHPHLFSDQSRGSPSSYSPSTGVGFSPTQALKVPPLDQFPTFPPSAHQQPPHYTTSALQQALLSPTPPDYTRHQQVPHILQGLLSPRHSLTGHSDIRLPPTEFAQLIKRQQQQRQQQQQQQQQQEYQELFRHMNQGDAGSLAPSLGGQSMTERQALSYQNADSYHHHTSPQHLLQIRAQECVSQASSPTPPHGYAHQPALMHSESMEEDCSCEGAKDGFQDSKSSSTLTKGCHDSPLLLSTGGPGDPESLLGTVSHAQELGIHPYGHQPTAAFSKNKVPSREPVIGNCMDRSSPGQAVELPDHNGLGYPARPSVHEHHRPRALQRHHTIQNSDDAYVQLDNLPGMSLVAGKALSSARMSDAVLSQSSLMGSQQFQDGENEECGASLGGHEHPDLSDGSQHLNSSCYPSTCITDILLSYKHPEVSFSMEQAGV
Method: as §1, §2, §3, §4, §5, §6, §7, §8, §9, §10

[1] = system: naïve splenic CD4+ T cells differentiated to Treg or Tr1; assay: Treg and Tr1 T cell differentiation, viability, FoxP3 staining and IL-10 ELISA; type: cell-based, mouse
Method: Balb/c mice were euthanized and splenic CD4+CD62L+ T cells were magnetically enriched (Miltenyi Biotec) to >95% purity and cultured in DMEM media on plates pre-coated with anti-CD3 and anti-CD28 antibodies (clones 145-2C11 and 37.51; BioXCell). Culture media was supplemented with 10 μg/mL anti-IL-4 (clone 11B11; BioXCell), anti-IL-12 (clone C17.8; BioXCell), and anti-IFNγ (clone XMG1.2; BioXCell) as well as TGFβ (2 ng/mL; PeproTech). HG-9-91-01 (100 nM) or DMSO were added at day 0. Cultures were fed with DMEM+IL-2 (10 ng/mL, Peprotech) containing small molecules at day 2 and analyzed at day 4. Cells were stained with blue LIVE/DEADAqua stain (Invitrogen) to discriminate live cells, fixed with Foxp3 Permeabilization Buffer (eBioscience), stained with FITC anti-CD4 (clone RM4-5, Biolegend) and PE anti-Foxp3 (clone FJK-16S, eBioscience) and acquired on a FACSVerse (BD Biosciences). For Th0 and Tr1 differentiations, C57BL/6 mice were euthanized and splenic CD4+CD62L+ T cells were magnetically enriched (Miltenyi Biotec) to >95% purity and cultured in DMEM media on plates pre-coated with anti-CD3 and anti-CD28 antibodies (clones 145-2C11 and 37.51; BioXCell) in the absence of neutralizing antibodies. For Tr1 differentiations, the culture media was supplement with TGFβ (2 ng/mL; PeproTech) and rIL-27 (25 ng/mL; R&D Systems) as described previously (Gagliani N, et al. (2013) Coexpression of CD49b and LAG-3 identifies human and mouse T regulatory type 1 cells. Nature medicine 19(6):739-746). After 4 days, cells were harvested, washed in PBS and stained with LIVE/DEADGreen to discriminate viable cells and eFluor450 anti-CD4 (BioLegend) and acquired on a FACSVerse (BD Biosciences). Absolute cell numbers were enumerated by adding 5000 […] beads (Spherotech) to each well. Analysis was performed using Flowjo (Treestar) excluding samples were significant toxicity was observed. For all differentiation conditions, IL-10 levels were quantified in the culture media at day 4 by ELISA (BD Biosciences).

Q: Which remaining activity at 0.1 µM (SIK2) does the source give for `CCN1CCN(c2ccc(Nc3cc(-n4ccnc4Nc4c(C)cccc4C)ncn3)cc2)CC1` [II-1, 6-(2-((2,6-dimethylphenyl)amino)-1H-imidazol-1-yl)-N-(4-(4-ethylpiperazin-1-yl)phenyl)pyrimidin-4-amine] here?
A: The remaining activity at 0.1 µM was 37%.

Q: What about the remaining activity at 1 µM (SIK2) of the same molecule?
A: Its remaining activity at 1 µM is 9%.

Q: And the IC50 (SIK2)?
A: Its IC50 is 65.1 nM.

Q: And the remaining activity at 0.1 µM (SIK3)?
A: The remaining activity at 0.1 µM was 45%.

Q: And the remaining activity at 1 µM (SIK3)?
A: The remaining activity at 1 µM was 16%.

Q: What about the IC50 (SIK3) of the same molecule?
A: Its IC50 is 120 nM.

Q: With `Cc1cccc(C)c1NC(=O)N1C/C=C\COc2cccc(c2)Nc2cc1ncn2` [I-1] as the molecule, how does the remaining activity at 0.1 µM (SIK2) read?
A: Its remaining activity at 0.1 µM is 10%.

Q: What about the remaining activity at 1 µM (SIK2) of the same molecule?
A: Its remaining activity at 1 µM is 5%.

Q: And the IC50 (SIK2)?
A: The IC50 was 9.72 nM.

Q: What about the remaining activity at 0.1 µM (SIK3) of the same molecule?
A: The remaining activity at 0.1 µM was 33%.

Q: And the remaining activity at 1 µM (SIK3)?
A: Its remaining activity at 1 µM is 13%.

Q: And the IC50 (SIK3)?
A: The IC50 was 89.1 nM.

Q: Which “fraction of Foxp3+ cells and IL-10 secretion of Treg's” value ([1]; 100 nM, 4 days) does the source give for `COc1ccc(N(C(=O)Nc2c(C)cccc2C)c2cc(Nc3ccc(N4CCN(C)CC4)cc3)ncn2)c(OC)c1` [HG-9-91-01] here?
A: The value was “did not increase the fraction of Foxp3^+ cells or promote IL-10 secretion”.

Q: What about the “concentrations toxic in Treg's and Tr1 cells” value ([1]; 4 days differentiation) of the same molecule?
A: Its value is “greater than 0.5 μM”.

Q: And the “IL-10 secretion by Tr1 cells” value ([1]; non-toxic concentrations, 4 days)?
A: The value was “not further enhanced”.
